According to the METLIN SMRT retention time set (Domingo-Almenara et al. 2019):

Experiment: gradient 5% acetonitrile 3 min, to 50% in 2 min, to 85% in 15 min, held 3 min, 100 µL/min
Settings: column: Zorbax Extend-C18 2.1 x 50 mm; eluents: water / acetonitrile, 0.1% formic acid
In short: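 Mixtures of ~100 pure standards were chromatographed on a Zorbax Extend-C18 column (2.1 × 50 mm, 1.8 μm) at 100 μL/min using water and acetonitrile, each with 0.1% formic acid. Detection used a quadrupole time-of-flight mass spectrometer in positive and negative ionization mode, and data collection spanned 3 months. Retention time was obtained from adduct peaks picked computationally and each checked manually.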

| SMILES | RP-LC retention time |
| --- | --- |
| O=C(NCC1CCOCC1)c1cnc(Nc2ccc(Cl)cc2Cl)nc1C(F)(F)F | 997 s |
| CCOc1ccc(CNC(=O)C2CCCN(c3ccc(=O)n(-c4ccc(F)cc4)n3)C2)cc1 (centres undefined) | 869 s |
| COc1cccc(NC(=O)c2cccn2Cc2noc(C)n2)c1 | 792 s |
| CCn1cnc(S(=O)(=O)N2CCC(C(=O)N3CCN(c4ccc(F)cc4)CC3)CC2)c1 | 762 s |
| COC(=O)c1ccc(C(=O)OC)c(NC(=O)N2CCC(CN3CCCCCC3)CC2)c1 | 678 s |
| CCCN1C(=O)c2cc(S(=O)(=O)NC(C)c3ccccc3)ccc2Oc2cccnc21 (centres undefined) | 1070 s |
| Cc1cc(F)ccc1NS(=O)(=O)c1cc2n(c1)CCCN(C)C2=O | 687 s |
| COc1ccc(NC(=O)c2cccn2-c2cccnc2)cc1OC | 678 s |
| COc1ccc(Nc2c(-c3ccc(N4CCOCC4)cc3)nc3ncccn23)cc1 | 654 s |
| CC(=O)NS(=O)(=O)c1ccc(NC(=O)NC2CC(=O)N(c3ccc(C)cc3)C2)cc1 (centres undefined) | 651 s |
| CCCC(=O)N1CCc2c([nH]c3ccccc23)C12C(=O)Nc1ccccc12 (centres undefined) | 830 s |
| O=C(C1=NN(CCc2ccccc2)c2ccccc2S1(=O)=O)N1CCCC1 | 857 s |
| CCc1cc(N2CCN(C(=O)c3ccc4c(c3)OCO4)CC2)nc2nnc(C)n12 | 607 s |
| O=C(Nc1ccc2c(c1)OCO2)C1CCc2sc(C(=O)N3CCCC3)cc2C1 (centres undefined) | 730 s |
| CCn1c(=O)oc2cc(-c3noc(-c4cc(SC)ccc4Cl)n3)ccc21 | 1270 s |
| CCn1c(C)c(CCC(=O)Nc2ccc(C)c(C)c2)c(=O)n2nc(-c3ccccc3)nc12 | 935 s |
| Cc1cccc(-c2nc3c4ccccc4nc(N4CCN(c5ccccn5)CC4)n3n2)c1 | 921 s |
| CCn1nccc1C(=O)Nc1ccc2c(c1)CCC(=O)N2C | 644 s |
| Cc1cc(C(=O)N2CCC(CC(=O)NC3CC3)C2)n(C)n1 (centres undefined) | 585 s |
| CCNS(=O)(=O)c1cccnc1Nc1ccc(F)cc1 | 942 s |
| CC(=O)OC1CCN(C(=O)NC(C)C)CC1 | 621 s |
| Cc1ccccc1Nc1c(-c2ccc(Cl)cc2Cl)nc2cnccn12 | 1030 s |
| Cc1ccccc1CN1C(=O)CN(S(C)(=O)=O)CC1(C)C(=O)NCc1ccccc1 (centres undefined) | 838 s |

| SMILES | RP-LC retention time |
| --- | --- |
| O=c1c2ccccc2c(-c2nc(-c3cccnc3)no2)cn1-c1ccccc1 | 1010 s |
| O=C(NCC(O)C1CCCCC1)c1ccsc1 (centres undefined) | 689 s |
| CCOC(=O)CCNC(=O)N1CCN(Cc2nnnn2-c2ccc(F)c(F)c2)CC1 | 688 s |
| CC1(C(=O)Oc2ccc(Cl)cc2)Cc2ccccc2C(=O)O1 (centres undefined) | 942 s |
| Cc1ccc(CNC(=O)CN2C(=O)C3CCCCN3c3ccc(S(=O)(=O)N4CCCC4)cc32)o1 (centres undefined) | 905 s |
| CCn1cc(S(=O)(=O)N2CCC(c3noc(-c4cccnc4)n3)C2)cn1 (centres undefined) | 710 s |
| O=C(Nc1cn(-c2ccc(C(=O)N3CCN(c4cccc(Cl)c4)CC3)cc2)cn1)C1CC1 | 810 s |
| O=C(Nc1ccc2c(c1)OCCO2)N1CCCn2nc(-c3cccc(Cl)c3)cc2C1 | 919 s |
| Cc1ccc(Nc2c(-c3ccc4c(c3)OCO4)nc3cnccn23)c(Br)c1 | 1000 s |
| COc1ccc(-c2noc(-c3nc(-c4ccc(N(C)C)cc4)no3)n2)cc1OC | 1230 s |
| Cc1nc(CC(=O)Nc2nc(-c3ccc(OC(C)C)cc3)cs2)cs1 | 1080 s |
| CCOc1ncccc1CNC(=O)NCc1cccc(OC)c1 | 570 s |
| Cc1noc(-c2nc(-c3cccc(C(F)(F)F)c3)no2)n1 | 1080 s |
| COc1ccc(C(=O)Nc2cccn3nc(C4CCC4)nc23)cc1 | 905 s |
| CCOC(=O)c1cccc(NC(=O)NC2COc3ccc(OC)cc3C2)c1 (centres undefined) | 906 s |
| COc1ccc(C2C(=O)N(C3CCCCC3)CC(=O)N2Cc2ccc3c(c2)OCO3)cc1OC (centres undefined) | 894 s |
| CCc1onc(C)c1C1CCCN1C(=O)Cc1ccccc1F (centres undefined) | 823 s |
| COC(=O)c1c(C)[nH]c(C(=O)N2CCC(CC(=O)NCc3cccc(OC)c3)CC2)c1C | 715 s |
| CCN(CC)CCCNC(=O)c1noc2c1CCCCC2 | 632 s |
| CC(C)c1ccc2oc3nc(N)c(C(=O)O)cc3c(=O)c2c1 | 891 s |
| CCCn1c(-c2cccc(C(=O)NCc3ccncc3)c2)nc2cccnc21 | 592 s |
| CC#C[C@@H](CC(=O)O)c1ccc(OCc2ccc(CN3CCC4(C=Cc5ccccc54)CC3)s2)cc1 | 915 s |
| Cc1nc(N2CCC(C(=O)Nc3ccc(F)cc3F)CC2)c2c(C)c(C)oc2n1 | 874 s |

| SMILES | RP-LC retention time |
| --- | --- |
| CC1CCN(S(=O)(=O)c2ccc3nn(CC(=O)OC(C)C)c(=O)n3c2)CC1 | 929 s |
| Cc1cccc(-c2cc3n(n2)CCCN(C(=O)Cc2cccc(C(F)(F)F)c2)C3)c1 | 1030 s |
| COc1ccc(CNC(=O)N2c3ccccc3CC2c2nc(C3CC3)no2)cc1 (centres undefined) | 1180 s |
| CCC(=O)N1CCc2cc(N3CC(C(=O)Nc4ccc(C)cc4Cl)CC3=O)ccc21 (centres undefined) | 789 s |
| Cc1ccc(C(=O)Nc2nc3c(s2)CN(S(=O)(=O)c2ccccc2)CC3)cc1Br | 1110 s |
| O=C(NCc1ccc(F)c(Cl)c1)C1CCN(c2ccc(SCc3ccccc3)nn2)CC1 | 839 s |
| Cc1nc(-c2cccc(NC(=O)CCCn3cnc(-c4ccc(F)cc4)cc3=O)c2)cs1 | 768 s |
| Cn1nc(CNC(=O)c2ccc(Br)cc2)c2ccccc21 | 840 s |
| CC(C)C1c2nccn2CCCN1C(=O)c1cc(C2CC2)[nH]n1 (centres undefined) | 592 s |
| CCOc1ccc(-c2noc(CN3C(=O)C(C)Oc4ccccc43)n2)cc1OC (centres undefined) | 1040 s |
| N#Cc1ccc(C(=O)Nc2cccnc2N2CCCC2)cc1 | 583 s |
| Cc1ccc(CN2CCN(C3CCN(C(=O)Nc4ccc(C)cc4)CC3)C(=O)C2=O)cc1 | 768 s |
| COC(=O)C1=CN(c2ccccc2)c2cc(F)c(F)cc2S1(=O)=O | 858 s |
| O=C(C1CCCN(S(=O)(=O)c2cc(-c3noc(C4CCCC4)n3)cs2)C1)N1CCOCC1 (centres undefined) | 966 s |
| Cn1ncc2c3ccccc3n(CC(=O)NCCc3cccs3)c2c1=O | 784 s |
| Cc1noc(-c2ccnc(-n3cnc(C(=O)NCc4ccc(Cl)cc4)c3)c2)n1 | 903 s |
| Cc1ccc2c(=O)c(S(=O)(=O)c3ccccc3)cn(Cc3cccc(Cl)c3)c2n1 | 1030 s |
| CN1C(=O)CCc2cc(NC(=O)c3n[nH]c4ccccc34)ccc21 | 730 s |
| COC(=O)c1[nH]c(C)c(C(=O)CN(CC2CCCO2)C(=O)c2ccc(OC)cc2)c1C (centres undefined) | 1030 s |
| O=C1c2ccccc2-c2c1c1ccccc1c(=O)n2Cc1ccccc1 | 1130 s |
| COc1ccc2c(c1)C(O)(CC(=O)c1ccc(-c3ccc(Cl)cc3)o1)C(=O)N2 (centres undefined) | 797 s |
| Cc1n[nH]c(C)c1S(=O)(=O)Nc1ccc(CC(=O)NCc2cccs2)cc1 | 640 s |
| Cc1ccccc1-c1noc(N2CCC(C(=O)N3CCN(C4CCCCC4)CC3)CC2)n1 | 705 s |

| SMILES | RP-LC retention time |
| --- | --- |
| COc1ccc(-c2nnc(N3CCC(C(=O)Nc4ccc(OC)c(OC)c4)CC3)o2)cc1 | 748 s |
| CNC(=O)c1cc(NC(=O)C2CCC2)cc2nc(C)ccc12 | 558 s |
| CCOC(=O)c1c(S(=O)(=O)N2CCC(C(=O)Nc3cccc(OC)c3)CC2)c(C)n(CC)c1C | 891 s |
| O=C(NCc1ccccn1)c1ccc2ncnc(N3CCCCC3)c2c1 | 551 s |
| CC(=O)N1CCCc2cc(S(=O)(=O)CCC(=O)Nc3ccc(C)c(C)c3)ccc21 | 784 s |
| COCc1noc([C@@H]2CC(F)(F)CN2C(=O)c2occc2C)n1 | 788 s |
| O=C(c1cnccn1)N1CCCCC1c1nc(-c2ccncc2)no1 (centres undefined) | 661 s |
| COc1ccccc1-c1nc(Cn2nnc(-c3nc(-c4cccs4)no3)c2C)c(C)o1 | 1050 s |
| Cc1ccccc1-c1noc(Cc2nnc(-c3ccc(F)cc3)o2)n1 | 1040 s |
| CCOc1ccc(CC(=O)N2CCC3(CC2)Nc2cc(OC)ccc2-n2cccc23)cc1OCC | 1030 s |
| CC(=O)CC(=O)Nc1ccc(Cl)c(C(F)(F)F)c1 | 831 s |
| Cc1sc(-c2noc(C3CC3)n2)cc1S(=O)(=O)N1CCC(C(=O)N2CCOCC2)CC1 | 853 s |
| COc1ccccc1NC(=O)Cn1ncc2c(c1=O)N(CC1CC1)C(=O)CS2 | 794 s |
| Cc1ccc(CNC(=O)Cn2c(N3CCOCC3)nc(C)cc2=O)cc1 | 647 s |
| CC1CCCN(CC2CCN(S(=O)(=O)Cc3ccccc3F)CC2)C1 (centres undefined) | 650 s |
| O=C(Cn1nc(C(=O)N2CCCC2)c2ccccc21)Nc1cccc(Cl)c1 | 875 s |
| CCc1nc(-c2csc(S(=O)(=O)N3CCC(C(=O)Nc4ccc(Cl)cc4)CC3)c2)no1 | 1070 s |
| Cc1ncsc1CN1CCCC(c2nc(C(C)C)no2)CCNC(=O)CC1 (centres undefined) | 598 s |
| Cc1ccc(-c2noc(-c3ccc(NC(=O)c4ccc(Br)o4)cc3)n2)cc1 | 1290 s |
| Cc1ccc(NC(=O)C(=O)c2ccc[nH]2)cc1F | 917 s |
